We go through 22 compounds from patent publication US8217035B2, “Pyrimidine derivatives used as PI-3-kinase inhibitors” (Novartis AG, priority 2006, dated 2012).

pEC50, pIC50: −log10 of the molar value. Like-named read-outs stand apart in the source and are kept apart here.

In test [1] the test system is pSer473 Akt in A2780 cells. Description: pSer473 Akt assay to monitor PI3K pathway in A2780 cells (Biological Method 2, MSD). The test is classed as cell-based. As to conditions: Homo sapiens, inhibition of Akt phosphorylation. The method, then: In this method, an assay for measuring the PI3K-mediated pSer473-Akt status after treatment with representative inhibitor compounds of the invention is described.
A2780 cells were cultured in DMEM supplemented with 10% FBS. L-glutamine, sodium pyruvate, and antibiotics. Cells were plated in the same medium at a density of 15,000 cells per well into 96 well tissue culture plates, with outside wells vacant, and allowed to adhere overnight.
Test compounds supplied in DMSO were diluted further into DMSO at 500 times the desired final concentrations before dilution into culture media to 2 times the final concentrations. Equal volumes of 2× compounds were added to the cells in 96 well plates and incubated at 37° C. for one hour. The media and compounds were then removed, the plates chilled and cells lysed in a lysis buffer (150 mM NaCl, 20 mM Tris pH 7.5, 1 mM EDTA, 1 mM EGTA, 1% Triton X-100) supplemented with phosphatase and protease inhibitors. After thorough mixing, lysates were transferred to both pSer473Akt and total Akt assay plates from Meso Scale Discovery (MSD), and incubated overnight with shaking at 4° C.
The assays were read on a SECTOR Imager 6000 instrument (Meso Scale Discovery). Ratios of the signal from pSer473Akt and total Akt assays were used to correct for any variability and the percent inhibition of pSer473Akt from the total signal seen in cells treated with compound versus DMSO alone was calculated and used to determine EC50 values for each compound.

Test [2] concerns the target PI3 kinase alpha (Homo sapiens, UniProt P42336). Description: PI3K ATP depletion assay (Biological Method 1, Assay 3; KinaseGlo luminescence). Type of test: biochemical. As to conditions: ATP depletion assay, read-out: PI3 Kinase Alpha, IC50. In a few lines: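 Compound in DMSO was mixed with 10 nM PI3 kinase and 5 μg/mL phosphatidylinositol, and the reaction was started with 2 μM ATP. It ran to about 50% ATP depletion and was stopped with KinaseGlo.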

In test [3] the test system is A2780 ovarian cancer cells. Description: Cellular proliferation in A2780 cells, Cell Titer Glo (Biological Method 4). The test is classed as cell-based. The following applies: Homo sapiens. The gist of the method:
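A2780 cells seeded at 1,000/well in DMEM with 10% FBS, at least 2 h before compound, then exposed 72 h at 37 °C, 5% CO2. Viable cells measured by Cell Titer Glo luminescence; EC50 calculated from duplicate conditions.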

Setting [4] is: ovarian cancer cell line A2780, Biological Method 4.

PI3 kinase alpha, sequence (P42336 whole entry): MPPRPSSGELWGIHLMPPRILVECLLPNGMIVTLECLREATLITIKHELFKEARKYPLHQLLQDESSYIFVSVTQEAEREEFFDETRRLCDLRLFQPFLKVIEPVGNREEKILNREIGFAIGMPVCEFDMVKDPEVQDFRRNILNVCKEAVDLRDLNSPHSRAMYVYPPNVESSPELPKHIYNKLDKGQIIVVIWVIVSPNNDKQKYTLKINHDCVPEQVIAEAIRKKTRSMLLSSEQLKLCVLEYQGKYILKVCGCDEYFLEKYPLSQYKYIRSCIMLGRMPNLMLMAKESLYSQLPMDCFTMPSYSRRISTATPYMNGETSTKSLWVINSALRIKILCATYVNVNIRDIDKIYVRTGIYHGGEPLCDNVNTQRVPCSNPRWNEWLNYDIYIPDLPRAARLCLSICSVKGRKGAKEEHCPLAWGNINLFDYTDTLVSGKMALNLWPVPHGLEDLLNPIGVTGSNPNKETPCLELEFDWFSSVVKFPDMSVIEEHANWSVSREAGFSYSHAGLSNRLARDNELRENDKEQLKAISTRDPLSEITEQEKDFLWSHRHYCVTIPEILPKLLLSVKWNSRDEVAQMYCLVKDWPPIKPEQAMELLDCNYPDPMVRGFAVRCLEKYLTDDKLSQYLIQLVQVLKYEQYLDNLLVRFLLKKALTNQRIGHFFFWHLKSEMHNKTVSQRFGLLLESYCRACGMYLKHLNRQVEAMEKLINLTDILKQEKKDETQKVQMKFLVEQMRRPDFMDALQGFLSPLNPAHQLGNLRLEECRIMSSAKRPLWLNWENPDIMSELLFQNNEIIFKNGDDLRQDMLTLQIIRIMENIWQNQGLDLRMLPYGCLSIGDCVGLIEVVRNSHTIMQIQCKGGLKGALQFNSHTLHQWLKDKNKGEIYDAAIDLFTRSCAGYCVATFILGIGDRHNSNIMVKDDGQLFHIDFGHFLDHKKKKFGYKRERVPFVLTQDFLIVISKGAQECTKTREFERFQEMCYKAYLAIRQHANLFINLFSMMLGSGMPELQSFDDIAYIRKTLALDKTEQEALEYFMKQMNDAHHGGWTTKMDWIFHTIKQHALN
PI3 kinase alpha, sequence (P27986 whole entry partner): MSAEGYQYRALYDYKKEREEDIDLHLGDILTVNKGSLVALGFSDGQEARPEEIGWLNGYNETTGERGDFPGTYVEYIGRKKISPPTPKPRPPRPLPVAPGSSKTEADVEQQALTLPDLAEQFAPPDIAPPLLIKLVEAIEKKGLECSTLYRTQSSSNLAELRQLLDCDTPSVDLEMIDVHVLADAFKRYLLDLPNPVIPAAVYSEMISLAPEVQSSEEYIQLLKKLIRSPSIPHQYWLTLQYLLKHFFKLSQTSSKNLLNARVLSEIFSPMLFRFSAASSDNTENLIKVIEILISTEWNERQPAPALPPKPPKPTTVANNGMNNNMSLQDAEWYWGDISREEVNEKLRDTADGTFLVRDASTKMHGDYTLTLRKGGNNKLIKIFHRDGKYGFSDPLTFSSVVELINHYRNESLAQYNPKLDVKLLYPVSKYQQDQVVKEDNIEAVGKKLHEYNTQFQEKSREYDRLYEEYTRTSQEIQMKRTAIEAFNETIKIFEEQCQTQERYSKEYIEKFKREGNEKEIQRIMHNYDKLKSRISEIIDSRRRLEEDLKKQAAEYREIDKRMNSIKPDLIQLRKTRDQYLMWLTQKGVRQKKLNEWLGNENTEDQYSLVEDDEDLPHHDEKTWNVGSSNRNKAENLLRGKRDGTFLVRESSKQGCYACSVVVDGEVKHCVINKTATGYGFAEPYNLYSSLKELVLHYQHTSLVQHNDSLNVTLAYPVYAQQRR

Regarding `Nc1ncc(-c2cc(O[C@H]3CCOC3)nc(N3CCOCC3)n2)c(N)n1` [Compound 101], the pEC50 was above 6.00 in test [1] (A2780 cells) and above 5.00 in test [3] (ovarian cancer cell line A2780). For the same compound, the pIC50 in test [2] is above 6.00.
Take `CCN(CC)Cc1cnc(Nc2cc(-c3cnc(N)nc3N)nc(N3CCOCC3)n2)s1` [Compound 59]: the pEC50 in test [1] (A2780 cells) and in test [3] (ovarian cancer cell line A2780) was above 6.00 throughout. For the same compound, the pIC50 in test [2] is above 6.00.
With `CC(C)OC(=O)N1CCC(Oc2cc(-c3cnc(N)nc3C(F)(F)F)nc(N3CCOCC3)n2)CC1` [Compound 115], the pEC50 in test [1] (A2780 cells) is above 6.00; in test [3] (ovarian cancer cell line A2780) it was above 5.00. For the same compound, the pIC50 in test [2] is above 6.00.
On to `CS(=O)(=O)Nc1ncccc1-c1cc(-c2cnc(N)nc2C(F)(F)F)nc(N2CCOCC2)n1` [Compound 69], for which the pEC50 in test [1] (A2780 cells) and in test [3] (ovarian cancer cell line A2780) was above 6.00 throughout. Further, in test [2], the pIC50 is above 6.00.
As for `CC(C)OC(=O)N1CCC(Oc2cc(-c3cnc(N)[nH]c3=O)nc(N3CCOCC3)n2)CC1` [Compound 32], the pEC50 in test [1] (A2780 cells) and in test [3] (ovarian cancer cell line A2780) was above 6.00 each time. In test [2], the pIC50 was above 6.00.
Regarding `COc1cccc2ncc(Nc3cc(-c4cnc(N)cc4C(F)(F)F)nc(N4CCOCC4)n3)cc12` [Compound 140], the pEC50 in test [1] (A2780 cells) was above 6.00; in test [3] (ovarian cancer cell line A2780) it was above 5.00. Moreover, the pIC50 in test [2] is above 6.00.
`CC(C)C(=O)N1CCC(Oc2cc(-c3cnc(N)nc3C(F)(F)F)nc(N3CCOCC3)n2)CC1` [Compound 106]: the pEC50 in test [1] (A2780 cells) and in test [3] (ovarian cancer cell line A2780) was above 6.00 in each case. The pIC50 in test [2] is above 6.00.
`Nc1ncc(-c2cc(OC3CCN(C(=O)c4ccccc4)CC3)nc(N3CCOCC3)n2)c(N)n1` [Compound 122]: the pEC50 in test [1] (A2780 cells) and in test [3] (ovarian cancer cell line A2780) was above 6.00 in each case. Besides, the pIC50 in test [2] was above 6.00.
For the compound `CS(=O)(=O)N1CCC[C@@H](Oc2cc(-c3cnc(N)nc3N)nc(N3CCOCC3)n2)C1` [Compound 127], the pEC50 in test [1] (A2780 cells) is above 6.00; in test [3] (ovarian cancer cell line A2780), above 5.00. Also, the pIC50 in test [2] is above 6.00.
As for `CC(=O)c1ccccc1Nc1cc(-c2ccc(N)nc2)nc(N2CCOCC2)n1` [Compound 172], the pEC50 in test [1] (A2780 cells) is above 6.00; in test [3] (ovarian cancer cell line A2780) it was above 5.00. Also, the pIC50 in test [2] is above 6.00.
Turning to `COc1cncc(-c2cc(-c3cnc(N)nc3)nc(N3CCOCC3)n2)c1` [Compound 57], the pEC50 in test [1] (A2780 cells) and in test [3] (ovarian cancer cell line A2780) was above 6.00 throughout. Besides, the negative logarithm of the IC50 (pIC50) in test [2] is above 6.00.
As to `CS(=O)(=O)c1ccc(Nc2cc(-c3ccc(N)nc3)nc(N3CCOCC3)n2)cc1` [Compound 112], the values for the pEC50 in test [1] (A2780 cells) and in test [3] (ovarian cancer cell line A2780) were above 6.00 and above 5.00, respectively. In test [2], the pIC50 is above 6.00.
In the case of `COc1cc(N)ncc1-c1cc(Nc2cnc3ccccc3c2)nc(N2CCOCC2)n1` [Compound 200], the pEC50 was above 6.00 in test [1] (A2780, Biological Method 2) and above 6.00 in test [3] (setting [4]). Moreover, the pIC50 in test [2] (Biological Method 1) is above 6.00.
Consider `N#Cc1cc(-c2cnc(N)cc2C(F)(F)F)nc(N2CCOCC2)n1` [Compound 209], for which the pEC50 in test [1] (A2780, Biological Method 2) is above 5.00; in test [3] (setting [4]), above 5.00. Also, in test [2] (Biological Method 1), the pIC50 is above 6.00.
Regarding `Nc1ncc(-c2cc(O[C@@H]3CCOC3)nc(N3CCOCC3)n2)c(=O)[nH]1` [Compound 56], the negative logarithm of the EC50 (pEC50) in test [1] (A2780 cells) and in test [3] (ovarian cancer cell line A2780) was above 6.00 throughout. The pIC50 in test [2] was above 6.00.
Turning to `Nc1ccc(-c2cc(Nc3cccc(-c4cnco4)c3)nc(N3CCOCC3)n2)cn1` [Compound 163], the results for the pEC50 in test [1] (A2780 cells) and in test [3] (ovarian cancer cell line A2780) were above 6.00 and above 5.00, respectively. The pIC50 in test [2] was above 6.00.
Consider `N#Cc1cc(N)ncc1-c1cc(N2CCOCC2)nc(N2CCOCC2)n1` [Compound 162], for which the pEC50 in test [1] (A2780 cells) and in test [3] (ovarian cancer cell line A2780) was above 6.00 in each case.
For the compound `COC(=O)N1CCC(Oc2cc(-c3cnc(N)nc3C(F)(F)F)nc(N3CCOCC3)n2)CC1` [Compound 70], the pEC50 in test [1] (A2780 cells) and in test [3] (ovarian cancer cell line A2780) was above 6.00 each time. Besides, the pIC50 in test [2] was above 6.00.
Take `Nc1cc(C(F)(F)F)c(-c2cc(OC3CCN(C(=O)c4ccccc4)CC3)nc(N3CCOCC3)n2)cn1` [Compound 83]: the pEC50 in test [1] (A2780 cells) is above 6.00; in test [3] (ovarian cancer cell line A2780), above 5.00. Further, the pIC50 in test [2] is above 6.00.
On to `CC(C)Oc1ncccc1Nc1cc(-c2cnc(N)cc2C(F)(F)F)nc(N2CCOCC2)n1` [Compound 204], for which the pEC50 was above 6.00 in test [1] (A2780, Biological Method 2) and above 4.60 in test [3] (setting [4]). Further, the pIC50 in test [2] (Biological Method 1) was above 6.00.
On to `CS(=O)(=O)N1CCC(Oc2cc(-c3cnc(N)[nH]c3=O)nc(N3CCOCC3)n2)CC1` [Compound 58], for which the pEC50 in test [1] (A2780 cells) and in test [3] (ovarian cancer cell line A2780) was above 6.00 throughout. The pIC50 in test [2] is above 6.00.
In the case of `N#Cc1ccc(Nc2cc(-c3ccc(N)nc3)nc(N3CCOCC3)n2)cc1` [Compound 179], the pEC50 is above 6.00 in test [1] (A2780 cells) and above 5.00 in test [3] (ovarian cancer cell line A2780). Besides, the pIC50 in test [2] is above 6.00.
